Assay results reported in US7517889B2, “2,6-substituted-4-monosubstitutedamino-pyrimidine as prostaglandin D2 receptor antagonists” (Aventis Pharmaceuticals, Inc., priority 2004, dated 2009).
Counter-ions that a name gives are not always drawn.

Biological target: T1, DP receptor (Homo sapiens, UniProt Q13258)
T1 construct: the human cell line LS174T, which expresses the endogenous DP receptor; endogenous in cells; host or cells: LS174T human cell line
T1 sequence (Q13258 1-359): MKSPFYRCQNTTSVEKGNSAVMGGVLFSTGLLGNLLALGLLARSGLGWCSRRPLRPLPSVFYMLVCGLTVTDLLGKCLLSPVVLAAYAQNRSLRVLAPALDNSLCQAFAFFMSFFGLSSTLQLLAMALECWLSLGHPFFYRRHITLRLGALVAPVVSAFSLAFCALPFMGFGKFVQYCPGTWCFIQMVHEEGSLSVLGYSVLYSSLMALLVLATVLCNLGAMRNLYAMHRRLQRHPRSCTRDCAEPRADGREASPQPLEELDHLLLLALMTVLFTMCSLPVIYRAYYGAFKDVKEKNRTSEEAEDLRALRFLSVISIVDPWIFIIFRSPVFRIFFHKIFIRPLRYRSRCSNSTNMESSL
Experiment: SPA cAMP assay in human LS174 T cells (human DP functional assay)
Assay type: cell-based
Conditions: inhibition of PGD2 (15 nM final) stimulated cAMP, LS174T cells expressing endogenous DP receptor
Protocol: The inhibitory effects of the compounds according to the invention are assessed in a human DP functional assay. A cAMP assay is employed using the human cell line LS174T, which expresses the endogenous DP receptor.
Protocol for SPA cAMP Assay in Human LS174 T Cells
• 1) Add equal volumes of tracer, antiserum and SPA anti-rabbit reagent to a bottle, ensuring that a sufficient volume of this mixture is prepared for the desired number of wells (150 μL/well). • 2) Mix thoroughly. • 3) This immunoreagent solution should be freshly prepared before each assay and not re-used.
Add 50 μL of […] IBMX into 100 mL PBS to make a final concentration of 100 μM and sonicate at 30° C. for 20 minutes.
Before each assay, it is freshly prepared. Add 3 μL of 10 mM stock solution to 20 mL DMSO, mix it thoroughly, and transfer 10 mL to 40 mL PBS.
Compound dilution is carried out in Biomex 2000 (Beckman) using Method 1_cAMP DP 11 points.
5 μL of each compound from the 10 mM stock compound plates is transferred to the wells of a 96-well plate respectively as below.
Fill the plate with 45 μL of DMSO except column 7 is filled with 28 μL DMSO. Pipette column 1 thoroughly, and transfer 12 μL into column 7 parallel. Perform 1:10 serial dilution from column 1 to column 6 and from column 7 to column 11 by transfer 5 μL to 45 μL DMSO to make following concentrations:
Fill a new 96-well plate with 247.5 μL of compound dilution buffer. Transfer 2.5 μL of serially diluted compounds from above plate to the new plate (1:100 dilution) as following:
Cell Growth • 1. […] Remove growth medium from cells. Cells in T165 flask are washed twice with 4 mL Trypsin followed by incubation at 37° C. and 5% CO2 for 3 minutes. • 4. Add 10 mL of medium and pipette thoroughly to separate the cells and count the cells. • 5. […] Assay Procedure Day 1 • Seed 45,000 cells/well in 200 μL medium in 96-well plates. Incubate the cell plate at 37° C., 5% CO2 and 95% humidity overnight. Day 2 • 1. Perform compound dilution. • 2. Prepare assay buffer, lysis buffer 1 & 2, PGD2 and standard. • 3. Aspirate media from the cells and add 100 μL of compound solution using Zymark Sciclone-ALH/FD protocol cAMP DP. • 4. Incubate the cells at 37° C., 5% CO2 and 95% humidity for 15 minutes. • 5. […] Aspirate media from the cells and add 50 μL of lysis buffer 1 using Zymark protocol cAMP DP lysis, and incubate at room temperature with shaking for 30 minutes. • 7. Add 150 μL immunoreagent to all wells (a total volume of 200 μL/well). • 8. Seal the plates and shake for 2 minutes, put into the chamber of the Wallac microtitre plate μ scintillation counter for 16 hours. […] Data Processing Set up standard curve of cAMP versus CPM.
The cAMP concentrations (pmol/mL) of unknown samples are calculated from a standard curve of cAMP versus CPM. % inhibition is calculated using the following formula: […]

| Compound | IC50 [nM] |
| --- | --- |
| COc1ccc(CCNc2cc(-c3ccc4[nH]ccc4c3)nc(OC)n2)cc1 [Example 10(c), [6-(1H-Indol-5-yl)-2-methoxy-pyrimidin-4-yl]-[2-(4-methoxy-phenyl)-ethyl]-amine] | 0.7 |
| COc1nc(NCCc2ccc(Cl)cc2Cl)cc(N2CCCC(c3nn[nH]n3)C2)n1 (stereo not drawn) [Example 96, [2-(2,4-Dichloro-phenyl)-ethyl]-{2-methoxy-6-[3-(2H-tetrazol-5-yl)-piperidin-1-yl]-pyrimidin-4-yl}-amine] | 5 |
| COc1ccc(CCNc2cc(-c3ccc(OC)c(-c4nnn[nH]4)c3)nc(OC)n2)cc1 [Example 24(c), {2-Methoxy-6-[4-methoxy-3-(1H-tetrazol-5-yl)-phenyl]-pyrimidin-4-yl}-[2-(4-methoxy-phenyl)-ethyl]-amine] | 0.5 |
| COC(=O)c1cccc(Oc2cc(NCCc3ccc(OC)c(OC)c3)nc(OC)n2)c1 [Example (63), 3-{6-[2-(3,4-dimethoxy-phenyl)-ethylamino]-2-methoxy-pyrimidin-4-yloxy}-benzoic acid methyl ester] | 6250 |
| COc1nc(NCCc2ccc(OC(F)F)cc2)cc(-c2cccc(NC(C)=O)c2)n1 [Example 46(c), N-(3-{6-[2-(4-Difluoromethoxy-phenyl)-ethylamino]-2-methoxy-pyrimidin-4-yl}-phenyl)-acetamide hydrochloride] | 4 |
| COc1nc(NCCc2ccc(OC(F)(F)F)cc2)cc(-c2ccc3c(c2)CC(C(=O)O)O3)n1 (stereo not drawn) [Example 88, 5-{2-Methoxy-6-[2-(4-trifluoromethoxy-phenyl)-ethylamino]-pyrimidin-4-yl}-2,3-dihydro-benzofuran-2-carboxylic acid hydrochloride] | 3.1 |
| COc1ccc(CCNc2cc(-c3ccc(C(=O)O)s3)nc(OC)n2)cc1 [Example 8(a), 5-{2-Methoxy-6-[2-(4-methoxy-phenyl)-ethylamino]-pyrimidin-4-yl}-thiophene-2-carboxylic acid trifluoroacetate] | 0.33 |
| COCC(=O)NCc1cc(-c2cc(NCCc3ccc(OC)cc3)nc(OC)n2)ccc1F [Example 28, N-(2-Fluoro-5-{2-methoxy-6-[2-(4-methoxy-phenyl)-ethylamino]-pyrimidin-4-yl}-benzyl)-2-methoxy-acetamide hydrochloride] | 9 |
| COc1ccc(CCNc2cc(-c3ccc(OC)c(OC)c3)nc(OC(C)C)n2)cc1OC [Example 17(a), [2-(3,4-Dimethoxy-phenyl)-ethyl]-[6-(3,4-dimethoxy-phenyl)-2-isopropoxy-pyrimidin-4-yl]-amine] | 6730 |
| COc1ccc(CCNc2cc(-c3ccc(F)c(CNCCN(C)C)c3)nc(OC)n2)cc1 [Example 13(d), N-(2-Fluoro-5-{2-methoxy-6-[2-(4-methoxy-phenyl)-ethylamino]-pyrimidin-4-yl}-benzyl)-N′,N′-dimethyl-ethane-1,2-diamine hydrochloride] | 56 |
| COc1ccc(C[C@H](Nc2cc(-c3cccc(OC)c3)nc(OC)n2)C(=O)O)cc1 [Example 43(n), (2S)-2-[2-Methoxy-6-(3-methoxy-phenyl)-pyrimidin-4-ylamino]-3-(4-methoxy-phenyl)-propionic acid] | 548 |
| COc1cccc(-c2cc(NCCc3cccnc3)nc(OC)n2)c1 [Example 43(i), [2-Methoxy-6-(3-methoxy-phenyl)-pyrimidin-4-yl]-(2-pyridin-3-yl-ethyl)-amine hydrochloride] | 248 |
| COc1ccc(CCNc2cc(-c3cn[nH]c3)nc(OC)n2)cc1 [Example 8(f), [2-(4-Methoxy-phenyl)-ethyl]-[2-methoxy-6-(1H-pyrazol-4-yl)-pyrimidin-4-yl]-amine] | 26 |

Other lines, results leading:

| IC50 [nM] | Compound |
| --- | --- |
| 0.6 | COc1nc(NCCc2ccc(Cl)cc2)cc(-c2cccc(C(=O)O)c2)n1 [Example 35(n), 3-{6-[2-(4-chlorophenyl)-ethylamino]-2-methoxy-pyrimidin-4-yl}-benzoic acid hydrochloride] |
| 219 | CCc1nc(NCCc2ccc(OC)cc2)cc(-c2cccc(OC)c2)n1 [Example 18, [2-Ethyl-6-(3-methoxy-phenyl)-pyrimidin-4-yl]-[2-(4-methoxy-phenyl)-ethyl]-amine] |
| 0.6 | COC(=O)COc1cccc(-c2cc(NCCc3ccc(Cl)cc3Cl)nc(OC)n2)c1 [Example 22(c), (3-{6-[2-(2,4-Dichloro-phenyl)-ethylamino]-2-methoxy-pyrimidin-4-yl}-phenoxy)-acetic acid methyl ester] |
| 2 | COc1nc(NCCc2ccc(Cl)cc2Cl)cc(-c2cccc(C(C)(C)C(=O)NS(=O)(=O)Cc3ccccc3)c2)n1 [Example 95(b), N-[2-(3-{6-[2-(2,4-Dichloro-phenyl)-ethylamino]-2-methoxy-pyrimidin-4-yl}-phenyl)-2-methyl-propionyl]-C-phenyl-methanesulfonamide] |
| 0.02 | COc1nc(NCCc2ccc(Cl)cc2Cl)cc(-c2cccc(C(F)(F)C(=O)O)c2)n1 [Example 81(a), (3-{6-[2-(2,4-Dichloro-phenyl)-ethylamino]-2-methoxy-pyrimidin-4-yl}-phenyl)-difluoro-acetic acid] |
| 1690 | COc1cccc(-c2cc(NCCCc3ccccc3)nc(OC)n2)c1 [Example 43(l), [2-Methoxy-6-(3-methoxy-phenyl)-pyrimidin-4-yl]-(3-phenyl-propyl)-amine hydrochloride] |
| 2.4 | COc1nc(NCCc2c(F)cccc2Cl)cc(-c2cccc(CO)c2)n1 [Example 9(d), (3-{6-[2-(2-chloro-6-fluoro-phenyl)-ethylamino]-2-methoxy-pyrimidin-4-yl}-phenyl)-methanol] |
| 0.3 | COc1nc(NCCc2ccc(Cl)cc2Cl)cc(-c2cccc(C(=O)O)c2)n1 [Example 35(w), 3-{6-[2-(2,4-dichloro-phenyl)-ethylamino]-2-methoxy-pyrimidin-4-yl}-benzoic acid] |
| 0.6 | COc1nc(NCCc2c(F)cccc2Cl)cc(-c2cccc(COCC(=O)O)c2)n1 [Example 56, (3-{6-[2-(2-Chloro-6-fluoro-phenyl)-ethylamino]-2-methoxy-pyrimidin-4-yl}-benzyloxy)-acetic acid] |
| 393 | COc1nc(NCc2ccsc2)cc(-c2cccc(C(C)(C)C(=O)O)c2)n1 [Example 71, 2-(3-{2-Methoxy-6-[(thiophen-3-ylmethyl)-amino]-pyrimidin-4-yl}-phenyl)-2-methyl-propionic acid] |
| 71 | CC(C)(C(=O)O)c1cccc(-c2cc(NCCc3ccc(Cl)cc3Cl)nc(CO)n2)c1 [Example 86, 2-(3-{6-[2-(2,4-dichloro-phenyl)-ethylamino]-2-hydroxymethyl-pyrimidin-4-yl}-phenyl)-2-methyl-propionic acid] |
| 0.16 | COc1nc(NCCc2ccc(Cl)cc2Cl)cc(-c2ccc(C(=O)O)s2)n1 [Example 87, 5-{6-[2-(2,4-Dichloro-phenyl)-ethylamino]-2-methoxy-pyrimidin-4-yl}-thiophene-2-carboxylic acid] |
| 110 | COc1nc(NCCc2ccc(Cl)cc2Cl)cc(-c2ccc(Cl)c(C(C)(C)O)c2)n1 [Example 98, 2-(2-Chloro-5-{6-[2-(2,4-dichloro-phenyl)-ethylamino]-2-methoxy-pyrimidin-4-yl}-phenyl)-propan-2-ol] |
| 6 | COc1ccc(CCNc2cc(-c3cccc(CC#N)c3)nc(OC)n2)cc1 [Example 35(s), (3-{2-Methoxy-6-[2-(4-methoxy-phenyl)-ethylamino]-pyrimidin-4-yl}-phenyl)-acetonitrile] |
